Where a SMILES comes first, the peptide text is derived from it. [ ]: non-standard residue; d: D form. The star is where a group is joined. ξ: configuration not given here. X1 = O=C(COc1c(-c2csc(N3CCOCC3)n2)ccc(F)c1F)NCCCCCCN*; Dip = N[C@H](C(=O)O)C(c1ccccc1)c1ccccc1; Chg = N[C@H](C(=O)O)C1CCCCC1; NMeA = CN[C@@H](C)C(=O)O; ξP = O=C(O)C1CCCN1
Key:
[1] = target: T1, glucocorticoid receptor (GR) (Homo sapiens, UniProt P04150); assay: Immunoblot of GR in 22Rv1 cells; format: cell-based; conditions: 22Rv1, 24 hours, up to 10 μM
T1 construct: endogenous in cells; host or cells: 22Rv1
T1 sequence (P04150 1-777): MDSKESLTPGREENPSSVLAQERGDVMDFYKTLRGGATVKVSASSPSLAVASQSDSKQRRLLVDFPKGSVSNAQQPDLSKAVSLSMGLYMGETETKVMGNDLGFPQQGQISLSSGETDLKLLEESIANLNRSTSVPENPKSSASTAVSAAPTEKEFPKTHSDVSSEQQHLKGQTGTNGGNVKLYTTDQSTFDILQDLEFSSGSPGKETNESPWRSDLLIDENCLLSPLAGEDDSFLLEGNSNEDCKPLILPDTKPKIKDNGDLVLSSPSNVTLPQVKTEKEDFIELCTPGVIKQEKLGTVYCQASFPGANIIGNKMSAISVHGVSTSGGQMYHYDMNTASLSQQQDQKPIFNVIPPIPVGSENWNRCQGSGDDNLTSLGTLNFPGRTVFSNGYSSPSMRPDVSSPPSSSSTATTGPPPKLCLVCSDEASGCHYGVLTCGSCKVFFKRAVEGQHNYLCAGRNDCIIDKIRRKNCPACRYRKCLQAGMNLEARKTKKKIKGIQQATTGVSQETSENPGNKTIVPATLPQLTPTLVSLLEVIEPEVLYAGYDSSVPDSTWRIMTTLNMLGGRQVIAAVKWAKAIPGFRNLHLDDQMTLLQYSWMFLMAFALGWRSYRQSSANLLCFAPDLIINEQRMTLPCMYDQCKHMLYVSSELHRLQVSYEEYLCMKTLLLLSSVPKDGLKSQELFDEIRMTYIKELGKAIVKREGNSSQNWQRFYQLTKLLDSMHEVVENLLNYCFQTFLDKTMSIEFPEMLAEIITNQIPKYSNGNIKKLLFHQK
Procedure: Cell Culture. Human CaP cell lines, LNCaP, 22Rv1, VCaP, PC3, and DU145 are obtained from the American Type Culture Collection (ATCC) and maintained in the standard culture media: RPMI-1640 supplemented with 10% fetal bovine serum (FBS). LNCaP, 22Rv1, and VCaP are androgen-responsive cell lines, while PC3 and DU145 are not. To establish SAT resistant CaP cell lines, LNCaP, 22Rv1, and VCaP are treated continuously with 10-50 μM abiraterone, apalutamide, darolutamide, or enzalutamide. After 3-6 months, stable cell lines are established and designated as LNCaP-Abi^R, LNCaP-Apa^R, LNCaP-Daro^R, LNCaP-Enz^R, VCaP-Abi^R, VCaP-Apa^R, VCaP-Daro^R, VCaP-Enz^R, 22Rv1-Abi^R, 22Rv1-Apa^R, 22Rv1-Daro^R and 22Rv1-Enz^R. Unless otherwise specified, the standard culture media for these SAT-resistant cell lines included 10 μM of their respective SAT. For the proteasome inhibitor study, the inhibitors MG132 and Epoxomicin are used. The E3 ligase inhibitors Heclin, Nutlin 3a, Thalidomide, and VH298 are used. […] Mycoplasma contamination is also assessed using a PCR based detection system.
Immunoblot Analysis. […] Cell lysates are then centrifuged and protein in the supernatant is quantified. […] Following the incubation with appropriate secondary antibody, immunoblots are analyzed using SuperSignal West Femto Maximum Sensitivity Substrate (ThermoFisher).

22Rv1 = 22Rv1 cell proliferation assay (Experimental Example 1, cell count); format: cell-based; conditions: Homo sapiens, 22Rv1, read-out: 22Rv1 cell count decrease at 10 μM for 48 hours; 10 μM (method: four days); read-out: 22Rv1 cell count decrease at 10 μM
In short: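 Human prostate cancer 22Rv1 cells, reported to express high levels of AR-V7, were grown in RPMI-1640 containing 10% fetal bovine serum. Test compounds were first dissolved in DMSO as 50 mM stock solutions and then diluted to the required concentrations. Proliferation was assessed as the percentage decrease in cell count.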

[2] = tested on: SAT-resistant CaP cell lines; assay: Cell proliferation assay in twelve SAT-resistant CaP cell lines; format: cell-based, human; conditions: 1 μM, 6 days; all lines except 22Rv1-EnzR
Procedure: Cell Culture. Human CaP cell lines, LNCaP, 22Rv1, VCaP, PC3, and DU145 are obtained from the American Type Culture Collection (ATCC) and maintained in the standard culture media: RPMI-1640 supplemented with 10% fetal bovine serum (FBS). LNCaP, 22Rv1, and VCaP are androgen-responsive cell lines, while PC3 and DU145 are not. To establish SAT resistant CaP cell lines, LNCaP, 22Rv1, and VCaP are treated continuously with 10-50 μM abiraterone, apalutamide, darolutamide, or enzalutamide. After 3-6 months, stable cell lines are established and designated as LNCaP-Abi^R, LNCaP-Apa^R, LNCaP-Daro^R, LNCaP-Enz^R, VCaP-Abi^R, VCaP-Apa^R, VCaP-Daro^R, VCaP-Enz^R, 22Rv1-Abi^R, 22Rv1-Apa^R, 22Rv1-Daro^R and 22Rv1-Enz^R. Unless otherwise specified, the standard culture media for these SAT-resistant cell lines included 10 μM of their respective SAT. For the proteasome inhibitor study, the inhibitors MG132 and Epoxomicin are used. The E3 ligase inhibitors Heclin, Nutlin 3a, Thalidomide, and VH298 are used. Cell lines obtained from ATCC are confirmed by checking their morphology using optical microscopy, establishing baselines for cell proliferation, verifying species of origin using isoenzymology, and characterizing the cell's DNA fingerprint using short tandem repeat (STR) profiling. Mycoplasma contamination is also assessed using a PCR based detection system. […]

## Cc1ncsc1-c1ccc([C@H](C)NC(=O)[C@@H]2C[C@@H](O)CN2C(=O)[C@@H](NC(=O)CCCCNC(=O)COc2c(-c3csc(N4CCOCC4)n3)ccc(F)c2F)C(C)(C)C)cc1 [Example 16, (2S,4R)-1-((S)-2-(5-(2-(2,3-difluoro-6-(2-morpholinothiazol-4-yl)phenoxy)acetamido)pentanamido)-3,3-dimethylbutanoyl)-4-hydroxy-N-((S)-1-(4-(4-methylthiazol-5-yl)phenyl)ethyl)pyrrolidine-2-carboxamide]
[1]
  effect on expression level of glucocorticoid receptor (GR): no visible effect
22Rv1
  inhibition at 10 µM: < 50%
[2]
  cell counts of SAT-resistant CaP cell lines, % of control: 6-80 % of control

## CN[C@@H](C)C(=O)N[C@H](C(=O)N1CCCC1C(=O)N[C@H](C(=O)NCCCCCCNC(=O)COc1c(-c2csc(N3CCOCC3)n2)ccc(F)c1F)C(c1ccccc1)c1ccccc1)C1CCCCC1 (stereo partly drawn) [Example 26, (S)-1-((S)-2-cyclohexyl-2-((S)-2-(methylamino)propanamido)acctyl)-N-((S)-1-((6-(2-(2,3-difluoro-6-(2-morpholinothiazol-4-yl)phenoxy)acetamido)hexyl)amino)-1-oxo-3,3-diphenylpropan-2-yl)pyrrolidine-2-carboxamide] (H-[NMeA][Chg][ξP][Dip]-X1)
22Rv1
  inhibition at 10 µM: > 50%

— patent US20230132823A1, “BI-FUNCTIONAL COMPOUNDS AND METHODS FOR TARGETED UBIQUITINATION OF ANDROGEN RECEPTOR” (MONTELINO THERAPEUTICS, INC., priority 2020, published 2023)
